Assay results: patent US8093231B2, “Sulfonylethyl phosphorodiamidates” (Telik, Inc., priority 2004, dated 2012)
Read-outs that look alike come from different tables or passages of the source.

Assays:
Format in all cases: cell-based, human
MX-1 (breast carcinoma) = test: Cytotoxicity/growth inhibition assay, MX-1; settings: read-out: IC50 (MX-1)
Text: (§1) The human cancer cell lines DLD-1 (colorectal adenocarcinoma), LNCap (prostate carcinoma), and OVCAR-3 (ovarian carcinoma) were obtained from the American Type Culture Collection, Manassas, Va., U.S.A., and HL-60 (promyeloid myelocytic leukemia), MX-1 (breast carcinoma), P388, and P388ADR from the National Cancer Institute, Bethesda, Md., U.S.A. Carboplatin, doxorubicin, and melphalan were obtained from Sigma-Aldrich Chemical Company, St. Louis, Mo., U.S.A. The CellTiter-Glo assay kit was obtained from Promega Corporation, Madison, Wis., U.S.A., and the Cellular DNA Cytometric Analysis Reagent Kit from Roche Diagnostics Corporation, Indianapolis, Ind., U.S.A. Lambda DNA was obtained from New England Biolabs, Beverly, Mass., U.S.A., and SYBR-Gold from Molecular Probes, Inc., Eugene, Oreg., U.S.A. The DNeasy Tissue Kit was obtained from Qiagen Inc., Valencia, Calif., U.S.A., and AmpliTaq Gold DNA polymerase and PCR reagents from Applied Biosystems, Foster City, Calif., U.S.A. All products were used in accordance with manufacturer's directions. All assays were conducted in triplicate wells, with dimethyl sulfoxide (DMSO) solvent control. The extent of cell growth was expressed as a percentage of the signal from the solvent control wells.
(§2) Log-phase cells were trypsinized, collected by centrifugation, and resuspended in a small volume of fresh medium, and the density of viable cells was determined following Trypan Blue staining. Cells were diluted in fresh media (3×10^3 cells/mL for MX-1, 3×10^3 cells/mL for DLD-1, and 6×10^3 cells/mL for LNCap cells), the test compounds (concentrations between 0.1 and 200 μM, dissolved in DMSO, 50 μL) added immediately after dilution to achieve a final DMSO concentration of 0.5%, then the suspensions added at 150 μL/well to 96-well plates, and incubated for several hours to allow attachment in the case of adherent cells. The cells were cultured for approximately three doubling times (3 days for MX-1 and 4 days for DLD-1 and LNCap). The cells were then collected by centrifugation, and 100 μL of the culture supernatant was replaced by the CellTiter-Glo reagent. After incubation for 15 minutes at room temperature, and the plate was read with a luminometer.

[1] = test system: DLD-1 (colorectal adenocarcinoma); test: Cytotoxicity/growth inhibition assay, DLD-1; settings: read-out: IC50 (DLD-1)
Text: as §1, §2

[2] = test system: LNCap (prostate carcinoma); test: Cytotoxicity/growth inhibition assay, LNCap; settings: read-out: IC50 (LNCap)
Text: as §1, §2

[3] = MX-1 cells, 3 days culture, CellTiter-Glo, 0.1-200 μM tested
[4] = DLD-1 cells, 4 days culture, CellTiter-Glo, 0.1-200 μM tested
[5] = LNCap cells, 4 days culture, CellTiter-Glo, 0.1-200 μM tested

Compound	IC50 (MX-1 (breast carcinoma); [3]) [µM]	IC50 [1, 4] [µM]	IC50 [2, 5] [µM]	IC50 (MX-1 (breast carcinoma); Homo sapiens, MX1, 72 h) [µM]	IC50 ([1]; Homo sapiens, DLD-1, 96 h) [µM]	IC50 ([2]; Homo sapiens, LNCaP, 96 h) [µM]
O=P(OCCS(=O)(=O)C1CCCC1)(N(CCCl)CCCl)N(CCCl)CCCl [Compound 10A]	14.4	7.7	43	–	–	–
O=P(OCCS(=O)(=O)c1ccccc1S(=O)(=O)CCOP(=O)(N(CCCl)CCCl)N(CCCl)CCCl)(N(CCCl)CCCl)N(CCCl)CCCl [Compound 10B]	10.8	6.1	1.9	–	–	–
O=P(OCCS(=O)(=O)C1CCCCC1)(N(CCCl)CCCl)N(CCCl)CCCl [Compound 11A]	10.4	4	18.1	–	–	–
O=P(OCCS(=O)(=O)c1cccc(S(=O)(=O)CCOP(=O)(N(CCCl)CCCl)N(CCCl)CCCl)c1)(N(CCCl)CCCl)N(CCCl)CCCl [Compound 11B]	3	2.1	4.5	–	–	–
CCCCCCCCS(=O)(=O)CCOP(=O)(N(CCCl)CCCl)N(CCCl)CCCl [Compound 12A]	13.9	3.5	14.1	–	–	–
O=P(OCCS(=O)(=O)c1ccc(S(=O)(=O)CCOP(=O)(N(CCCl)CCCl)N(CCCl)CCCl)cc1)(N(CCCl)CCCl)N(CCCl)CCCl [Compound 12B]	4.3	1.9	7.1	–	–	–
O=P(OCCS(=O)(=O)Cc1ccccc1CS(=O)(=O)CCOP(=O)(N(CCCl)CCCl)N(CCCl)CCCl)(N(CCCl)CCCl)N(CCCl)CCCl [Compound 13B]	1.9	2.3	4.7	–	–	–
O=C(O)CS(=O)(=O)CCOP(=O)(N(CCCl)CCCl)N(CCCl)CCCl [Compound 14A, 2-[[2-[[bis[bis(2-chloroethyl)amino]phosphinyl]oxy]-ethyl]sulfonyl]acetic acid]	–	–	–	62.2	17.6	≥ 200
O=P(OCCS(=O)(=O)Cc1cccc(CS(=O)(=O)CCOP(=O)(N(CCCl)CCCl)N(CCCl)CCCl)c1)(N(CCCl)CCCl)N(CCCl)CCCl [Compound 14B]	2.3	3.2	5.7	–	–	–
O=P(OCCS(=O)(=O)Cc1ccc(CS(=O)(=O)CCOP(=O)(N(CCCl)CCCl)N(CCCl)CCCl)cc1)(N(CCCl)CCCl)N(CCCl)CCCl [Compound 15B]	1.4	2.4	4.4	–	–	–
O=P(OCCS(=O)(=O)CCO)(N(CCCl)CCCl)N(CCCl)CCCl [Compound 16A]	13	9.6	36.4	–	–	–
O=[N+]([O-])c1cc(CS(=O)(=O)CCOP(=O)(N(CCCl)CCCl)N(CCCl)CCCl)cc(CS(=O)(=O)CCOP(=O)(N(CCCl)CCCl)N(CCCl)CCCl)c1 [Compound 16B]	2.9	4.5	9.2	–	–	–
CC(=O)NCCS(=O)(=O)CCOP(=O)(N(CCCl)CCCl)N(CCCl)CCCl [Compound 17A]	6.3	4.2	13.9	–	–	–
Nc1cc(CS(=O)(=O)CCOP(=O)(N(CCCl)CCCl)N(CCCl)CCCl)cc(CS(=O)(=O)CCOP(=O)(N(CCCl)CCCl)N(CCCl)CCCl)c1 [Compound 17B]	6.2	4.6	18.6	–	–	–
O=C(O)CCC(=O)Nc1cc(CS(=O)(=O)CCOP(=O)(N(CCCl)CCCl)N(CCCl)CCCl)cc(CS(=O)(=O)CCOP(=O)(N(CCCl)CCCl)N(CCCl)CCCl)c1 [Compound 18B]	8.4	2.7	49.8	–	–	–
O=C(CS(=O)(=O)CCOP(=O)(N(CCCl)CCCl)N(CCCl)CCCl)N1CCN(Cc2ccccc2)CC1 [Compound 19A]	14.8	8.1	17.8	–	–	–
NCC(=O)Nc1cc(CS(=O)(=O)CCOP(=O)(N(CCCl)CCCl)N(CCCl)CCCl)cc(CS(=O)(=O)CCOP(=O)(N(CCCl)CCCl)N(CCCl)CCCl)c1 [Compound 19B]	7.6	3.8	52	–	–	–
O=C(CS(=O)(=O)CCOP(=O)(N(CCCl)CCCl)N(CCCl)CCCl)Nc1ccc([N+](=O)[O-])cc1 [Compound 20A]	4.3	2.8	3.6	–	–	–
CN(C)CC(=O)Nc1cc(CS(=O)(=O)CCOP(=O)(N(CCCl)CCCl)N(CCCl)CCCl)cc(CS(=O)(=O)CCOP(=O)(N(CCCl)CCCl)N(CCCl)CCCl)c1 [Compound 20B]	5.1	4	33.3	–	–	–
